Data taken from US20050080076A1 (Xanodyne Pharmacal, Inc., priority 2003, published 2005).

Experiments:
Serotonin 5-HT2B = Serotonin 5-HT2B (Homo sapiens, UniProt P41595); experiment: Receptor binding, Serotonin 5-HT2B
Protocol: (§1) Receptor-ligand binding studies were performed as known to one skilled in the art. Compounds evaluated were LMP, the parent compound, the NDM LMP metabolite of LMP, and the sulfoxide metabolite of LMP. These studies verified receptor binding and affinity by the parent compound, as well as identified other potential receptors for the parent compound and its metabolites, and identified and verified receptors and receptor affinity for the metabolites.
(§2) Dopamine receptor affinity included binding to D1, D2, D3, D4, and D5 receptors. Serotonin receptor affinity included binding to 5-HT1A, 5-HT2A, 5-HT2B, 5-HT2, 5-HT5A, 5-HT6, and 5-HT7 receptors. Alpha adrenergic receptor affinity included binding to α1A, α1B, α1C, α2A, α2B, and α2C receptors. Muscarinic receptor affinity included binding to M1, M2, M3, M4, and M5 receptors. Binding to the histamine H1 receptor, the calcium ion channel receptor, and the sodium ion channel receptor were also evaluated. In each of the tables, the following abbreviations are used: LMP indicates the parent compound levomepromazine. NDM LMP indicates the N-desmethyl (N-desmethyl) metabolite. Sulfoxide indicates the sulfoxide metabolite. […] Ki (the inhibition constants of binding) indicate binding affinity.

Adrenergic α1B = biological target: T1, Adrenergic α1B (Homo sapiens, UniProt P35368); experiment: Receptor binding, Adrenergic α1B
T1 sequence (P35368 1-520): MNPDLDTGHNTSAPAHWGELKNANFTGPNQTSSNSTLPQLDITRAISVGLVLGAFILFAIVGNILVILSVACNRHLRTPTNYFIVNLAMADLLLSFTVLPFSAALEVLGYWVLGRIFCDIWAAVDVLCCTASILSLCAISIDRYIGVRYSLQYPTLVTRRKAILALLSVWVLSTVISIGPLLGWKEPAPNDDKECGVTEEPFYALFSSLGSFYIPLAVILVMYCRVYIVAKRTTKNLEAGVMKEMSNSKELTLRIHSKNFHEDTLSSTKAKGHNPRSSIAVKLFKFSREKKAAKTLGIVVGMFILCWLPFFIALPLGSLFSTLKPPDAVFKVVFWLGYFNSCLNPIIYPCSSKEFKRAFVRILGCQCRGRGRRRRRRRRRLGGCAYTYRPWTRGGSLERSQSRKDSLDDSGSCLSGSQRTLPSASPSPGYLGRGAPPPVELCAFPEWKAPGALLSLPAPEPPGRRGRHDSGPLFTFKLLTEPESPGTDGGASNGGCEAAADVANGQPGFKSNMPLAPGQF
Protocol: as §1, §2

Adrenergic α2B = biological target: T2, Adrenergic α2B (Homo sapiens, UniProt P18089); experiment: Receptor binding, Adrenergic α2B
T2 sequence (P18089 1-450): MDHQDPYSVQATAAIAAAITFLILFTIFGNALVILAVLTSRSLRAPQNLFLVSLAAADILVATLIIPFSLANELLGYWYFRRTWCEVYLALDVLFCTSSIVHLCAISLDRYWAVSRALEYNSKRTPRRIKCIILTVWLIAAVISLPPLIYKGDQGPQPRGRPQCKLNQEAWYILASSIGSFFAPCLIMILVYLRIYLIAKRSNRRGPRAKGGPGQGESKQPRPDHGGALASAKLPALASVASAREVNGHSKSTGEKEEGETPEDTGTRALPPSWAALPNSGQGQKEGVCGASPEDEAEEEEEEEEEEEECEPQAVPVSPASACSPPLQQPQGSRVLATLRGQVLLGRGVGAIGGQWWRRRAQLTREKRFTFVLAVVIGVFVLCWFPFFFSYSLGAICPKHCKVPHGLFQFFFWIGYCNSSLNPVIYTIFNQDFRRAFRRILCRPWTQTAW
Protocol: as §1, §2

Muscarinic M5 = biological target: T3, Muscarinic M5 (Homo sapiens, UniProt P08912); experiment: Receptor binding, Muscarinic M5
T3 sequence (P08912 1-532): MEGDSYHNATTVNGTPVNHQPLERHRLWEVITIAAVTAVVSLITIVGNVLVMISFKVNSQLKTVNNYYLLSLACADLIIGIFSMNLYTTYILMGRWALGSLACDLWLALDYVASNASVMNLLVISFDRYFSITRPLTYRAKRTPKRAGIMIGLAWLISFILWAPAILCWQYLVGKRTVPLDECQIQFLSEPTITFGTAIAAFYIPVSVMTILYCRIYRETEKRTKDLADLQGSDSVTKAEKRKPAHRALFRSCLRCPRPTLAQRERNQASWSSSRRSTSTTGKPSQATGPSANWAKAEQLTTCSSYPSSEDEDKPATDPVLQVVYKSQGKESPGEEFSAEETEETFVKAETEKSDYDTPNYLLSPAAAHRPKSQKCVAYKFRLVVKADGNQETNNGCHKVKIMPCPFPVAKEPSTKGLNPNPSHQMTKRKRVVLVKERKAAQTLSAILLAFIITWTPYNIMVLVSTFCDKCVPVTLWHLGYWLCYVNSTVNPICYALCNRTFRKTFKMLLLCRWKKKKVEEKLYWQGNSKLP
Protocol: as §1, §2

Calcium Channel = experiment: Receptor binding, Calcium Channel
Protocol: as §1, §2

[1] = Serum concentrations and bioavailability after LMP administration; format: in vivo
Dopamine D1 = Dopamine D1 (Homo sapiens, UniProt P21728); experiment: Receptor binding, Dopamine D1
Protocol: Receptor-ligand binding studies were performed as known to one skilled in the art.
as §2, with “In each of the tables, the following abbreviations are used: LMP indicates the parent compound levomepromazine. NDM LMP indicates the N-desmethyl (N-desmethyl) metabolite.” left out

Adrenergic α2A = Adrenergic α2A (Homo sapiens, UniProt P08913); experiment: Receptor binding, Adrenergic α2A
Protocol: as §1, §2

dopamine receptors = experiment: Receptor affinity summary, dopamine receptors; format: binding; design: key to Relative Affinity: ≧ indicates greater or equal affinity; = indicates about the same affinity; − indicates no affinity; conditions: for Relative Affinity: Dopamine
Protocol: as §1, §2

serotonin receptors = experiment: Receptor affinity summary, serotonin receptors; format: binding; design: key to Relative Affinity: ≧ indicates greater or equal affinity; = indicates about the same affinity; − indicates no affinity; conditions: for Relative Affinity: Serotonin
Protocol: as §1, §2

Serum protein binding = format: in vitro ADME

Serotonin 5-HT2B, sequence (P41595 whole entry): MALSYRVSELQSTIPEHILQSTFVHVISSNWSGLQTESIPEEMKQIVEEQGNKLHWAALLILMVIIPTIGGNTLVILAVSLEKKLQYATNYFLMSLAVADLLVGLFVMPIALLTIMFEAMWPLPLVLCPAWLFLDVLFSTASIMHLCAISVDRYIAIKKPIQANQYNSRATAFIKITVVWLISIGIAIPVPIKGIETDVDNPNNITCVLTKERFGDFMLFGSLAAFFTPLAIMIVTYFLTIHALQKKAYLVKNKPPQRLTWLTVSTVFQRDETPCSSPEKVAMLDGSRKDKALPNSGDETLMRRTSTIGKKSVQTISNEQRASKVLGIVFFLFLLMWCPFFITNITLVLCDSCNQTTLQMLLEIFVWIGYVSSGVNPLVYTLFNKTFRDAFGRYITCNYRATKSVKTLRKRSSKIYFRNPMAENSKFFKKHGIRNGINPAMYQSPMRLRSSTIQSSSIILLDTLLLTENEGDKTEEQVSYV
Dopamine D1, sequence (P21728 whole entry): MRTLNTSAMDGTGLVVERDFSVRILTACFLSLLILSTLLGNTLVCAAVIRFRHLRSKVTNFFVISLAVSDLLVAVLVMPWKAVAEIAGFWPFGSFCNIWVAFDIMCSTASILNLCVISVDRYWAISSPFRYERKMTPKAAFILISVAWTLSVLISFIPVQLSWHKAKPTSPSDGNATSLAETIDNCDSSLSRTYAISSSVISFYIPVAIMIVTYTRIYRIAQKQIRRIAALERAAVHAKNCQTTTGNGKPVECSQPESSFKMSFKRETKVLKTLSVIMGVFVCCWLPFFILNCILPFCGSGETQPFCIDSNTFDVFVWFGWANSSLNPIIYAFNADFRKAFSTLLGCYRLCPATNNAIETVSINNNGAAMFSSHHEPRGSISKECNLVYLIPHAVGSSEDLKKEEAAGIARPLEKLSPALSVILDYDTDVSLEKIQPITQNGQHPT
Adrenergic α2A, sequence (P08913 whole entry): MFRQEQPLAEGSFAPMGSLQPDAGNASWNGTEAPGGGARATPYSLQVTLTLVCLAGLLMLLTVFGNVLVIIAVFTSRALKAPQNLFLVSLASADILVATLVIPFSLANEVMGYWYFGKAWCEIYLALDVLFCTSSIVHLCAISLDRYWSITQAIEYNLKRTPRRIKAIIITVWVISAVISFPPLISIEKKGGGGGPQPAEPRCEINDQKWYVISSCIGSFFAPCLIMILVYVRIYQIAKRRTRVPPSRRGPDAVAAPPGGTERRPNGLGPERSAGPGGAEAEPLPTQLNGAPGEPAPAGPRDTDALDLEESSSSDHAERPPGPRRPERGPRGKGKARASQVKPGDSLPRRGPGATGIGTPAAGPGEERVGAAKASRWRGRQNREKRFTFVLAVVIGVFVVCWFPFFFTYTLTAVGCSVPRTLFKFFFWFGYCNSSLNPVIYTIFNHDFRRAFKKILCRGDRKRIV

| SMILES | Ki (Serotonin 5-HT2B) [nM] | Ki (Adrenergic α1B) [nM] | Ki (Adrenergic α2B) [nM] | Ki (Muscarinic M5) [nM] | Ki (Calcium Channel) [nM] | bioavailability ([1]; in vivo, 25 mg oral formulation compared to 25 mg intravenous dose, read-out: absolute bioavailability) [%] | Ki (Dopamine D1) [nM] | Ki (Adrenergic α2A) [nM] | Relative Affinity (Calcium Channel) | Relative Affinity (dopamine receptors) | Relative Affinity (serotonin receptors) | fraction unbound (Serum protein binding; serum) | binding affinity to dopamine receptors (in words) (dopamine receptors) | binding affinity to serotonin receptors (in words) (serotonin receptors) | free fraction (less protein binding), relative (Serum protein binding; relative to LMP or NDM LMP) [fold] | sulfoxide detection after LMP ([1]; 25 mg LMP intramuscularly) | sulfoxide concentrations relative to parent compound ([1]; LMP 50 mg to 350 mg orally daily for one week) [times] | sulfoxide formation after LMP ([1]; LMP intravenously, bioavailability study) | total serum concentrations relative to parent LMP or NDM LMP ([1]; in vivo) |
| --- | --- | --- | --- | --- | --- | --- | --- | --- | --- | --- | --- | --- | --- | --- | --- | --- | --- | --- | --- |
| COc1ccc2c(c1)N(C[C@H](C)CN(C)C)c1ccccc1S2 [LMP, Levomepromazine] | 19 | 2 | 25 | 61 | 407 | ~20 |  |  |  |  |  |  |  |  |  |  |  |  |  |
| CNCC(C)CN1c2ccccc2Sc2ccc(OC)cc21 (stereo not drawn) [NDM LMP, R(+) 2-methoxy-10-2-methyl-3-monomethylaminopropyl phenothiazine] | 27 | 2 | 48 | 60 | 49 |  | 99 | 239 | NDM LMP > LMP > sulfoxide | LMP = NDM LMP | LMP = NDM LMP | 0.01 |  |  |  |  |  |  |  |
| COc1ccc2c(c1)N(C[C@H](C)CN(C)C)c1ccccc1[S+]2[O-] (stereo partly shown) [Sulfoxide, levomepromazine sulfoxide] | > 10000 | 80 | > 10000 | 481 | 9090 |  | > 10000 | > 10000 | NDM LMP > LMP > sulfoxide | − | − |  | essentially no binding affinity | essentially no binding affinity | 20 | no sulfoxide was detected | 2.5 | sulfoxide formation was detected although to a much lower extent compared to the oral formulation | 1.5-3.0 fold |
